US9605064B2, “Methods and compositions for treatment of skin disorders” (AbbVie Biotechnology Ltd, priority 2006, dated 2017)

How the values were obtained:
[1] = test system: patients with moderate to severe chronic plaque psoriasis; test: PGA, CHAMPION 16-week Phase III trial; assay type: in vivo, human; conditions: ITT, missing PGA = not achieving
Protocol: (§1) Analytical methods included the following: • Intention-to-treat analyses were performed for all randomized patients • Missing data were analyzed using non-responder imputation (NRI) • PASI 75 at Week 16 (primary endpoint) was analyzed using adjusted Cochran-Mantel-Haenszel test.

[2] = test system: patients with moderate to severe chronic plaque psoriasis; test: Adverse events, CHAMPION 16-week Phase III trial; conditions: 16-week study
[3] = test system: patients with moderate to severe chronic plaque psoriasis; test: PASI response, CHAMPION 16-week Phase III trial vs methotrexate and placebo; assay type: in vivo, human; conditions: ITT; for PASI 75 Response Rates, % Patients / PASI 90 Response Rates, % Patients: missing PASI = non-responder
Protocol: as §1

[4] = test system: patients with moderate to severe chronic plaque psoriasis; conditions: human, in vivo, 16 weeks
[5] = test system: patients with moderate to severe chronic plaque psoriasis; test: PASI response, open-label extension of CHAMPION (methotrexate to adalimumab transition); assay type: in vivo, human; conditions: prior to starting adalimumab, after 16 weeks of methotrexate in CHAMPION; 95 patients
[6] = MTX N = 110, Adalimumab N = 107

Viral Infection [4]: 6 (6) n (%)
Compound: CN(Cc1cnc2nc(N)nc(N)c2n1)c1ccc(C(=O)N[C@@H](CCC(=O)O)C(=O)O)cc1 [methotrexate, reference compound]
PGA “Clear” or “Minimal” Responses, % Patients ([1]; Week 4): 1%
PGA “Clear” or “Minimal” Responses, % Patients ([1]; Week 8): 3%
PGA “Clear” or “Minimal” Responses, % Patients ([1]; Week 12): 9%
PGA “Clear” or “Minimal” Responses, % Patients ([1]; Week 16): 14%
Any AE [2, 6]: 89 (81) n (%)
Any AE leading to discontinuation [2, 6]: 6 (6) n (%)
Any SAE [2, 6]: 1 (1) n (%)
Any infectious AE [2, 6]: 46 (42) n (%)
Any infectious SAE [2, 6]: 0 (0) n (%)
Arthralgia ([2]; common AE in ≧5% of patients): 5 (5) n (%)
Gamma-Glutamyltransferase Increased ([2]; common AE in ≧5% of patients): 0 (0) n (%)
Headache ([2]; common AE in ≧5% of patients): 12 (11) n (%)
Nasopharyngitis ([2]; common AE in ≧5% of patients): 26 (24) n (%)
Nausea ([2]; common AE in ≧5% of patients): 8 (7) n (%)
Pruritus ([2]; common AE in ≧5% of patients): 2 (2) n (%)
Rhinitis ([2]; common AE in ≧5% of patients): 4 (4) n (%)
Rhinorrhea ([2]; common AE in ≧5% of patients): 0 (0) n (%)
PASI 75 Response Rates, % Patients ([3]; Week 4): 3%
PASI 90 Response Rates, % Patients ([3]; Week 4): 1%
PASI 75 Response Rates, % Patients ([3]; Week 8): 9%
PASI 90 Response Rates, % Patients ([3]; Week 8): 3%
PASI 75 Response Rates, % Patients ([3]; Week 12): 25%
PASI 90 Response Rates, % Patients ([3]; Week 12): 9%
PASI 75 ([3]; Week 16, NRI): 36%
PASI 75 Response Rates, % Patients ([3]; Week 16): 36%
PASI 90 Response Rates, % Patients ([3]; Week 16): 14%
PASI 75 Response Rates, % Patients ([3]; Week 16, listed as MTX): 35.5%
PASI 90 Response Rates, % Patients ([3]; Week 16, listed as MTX): 13.6%
PASI 50 response rate ([3]; Week 16 of CHAMPION, NRI): 61.8%
PASI 100 response rate ([3]; Week 16 of CHAMPION, NRI): 7.3%
PASI 75 response rate [5]: 28%
PASI 90 response rate [5]: 14%
PASI 100 response rate [5]: 5%
